Test results as given in US20110251252A1, “BIOMARKERS FOR MDM2 INHIBITORS FOR USE IN TREATING DISEASE” (THE REGENTS OF THE UNIVERSITY OF MICHIGAN, priority 2010, published 2011).
pIC50: −log10 of the molar value. Where two headings read alike, the source gives them in different places.

Legend:
Type in all cases: cell-based, human
[1] = test system: p53 expression in resistant AML blasts with absent p53 expression; assay: Ex vivo AML blasts epigenetic and MDM2 inhibitor apoptosis assay; conditions: alone or in combination, followed by MI-219; four AML cases with absent or very low p53 mRNA
Experimental: Blasts enriched to >90% purity using methods detailed above were incubated with either DMSO or 0.5 μM 5-azacytidine (A2385, Sigma-Aldrich, Saint Louis, Mo.) for 48 hours (with 5-azacytidine replenished every 24 hours). During the last 12 hours of incubation, blasts were further aliquoted and treated with either 0.3 μM Trichostatin A (#9950, Cell Signaling Technology, Danvers, Mass.) or DMSO. At the end of the 48 hour incubation, each of the four differentially treated subgroups of blasts were treated with MI-219 at final concentrations of 0, 2.5, 5 and 10 μM for 40 hours, followed by annexin-V/PI FACS-based analysis of apoptosis. Aliquots of blasts in parallel were cultured in a 48-well plate at 10^6 cells per well in 1 ml of medium and treated with 10 μM MI-219 or solvent for 8 hours. Blasts were harvested, lysed and protein prepared for immunoblotting as described.
Attempting to obtain evidence for epigenetic p.53 gene silencing in AML with absent p53 mRNA expression, four AML cases were selected based on the availability of cryopreserved cells with absent or very low p53 mRNA for further analysis and treated purified blasts with trichostatin A and azacytidine (alone or in combination) followed by treatment with MI-219. Readouts for these experiments was the fraction of blasts undergoing apoptosis and posttreatment p53 protein levels. […]

[2] = test system: KG-1; assay: MI-219 apoptosis induction in AML cell lines; conditions: KG-1 AML cell line, p53 (exon5-9) mut
Experimental: (§1) Next—the ability of MI-219 to induce apoptosis in 19 AML-derived cell lines was assessed.

[3] = test system: HL60; assay: MI-219 apoptosis induction in AML cell lines; conditions: HL60 AML cell line, p53 deleted
Experimental: as §1

[4] = test system: OCI-M2; assay: MI-219 apoptosis induction in AML cell lines; conditions: OCI-M2 AML cell line, p53 (exon5-9) mut
Experimental: as §1

[5] = test system: Kasumi-1; assay: MI-219 apoptosis induction in AML cell lines; conditions: Kasumi-1 AML cell line, p53 (exon5-9) mut
Experimental: as §1

[6] = test system: GF-D8; assay: MI-219 apoptosis induction in AML cell lines; conditions: GF-D8 AML cell line, p53 (exon5-9) mut
Experimental: as §1

[7] = test system: SKM-1; assay: MI-219 apoptosis induction in AML cell lines; conditions: SKM-1 AML cell line, p53 (exon5-9) mut
Experimental: as §1

[8] = test system: ML-2; assay: MI-219 apoptosis induction in AML cell lines; conditions: ML-2 AML cell line, p53 wt
Experimental: as §1

[9] = test system: SIG-M5; assay: MI-219 apoptosis induction in AML cell lines; conditions: SIG-M5 AML cell line, p53 wt
Experimental: as §1

[10] = test system: Kasumi-3; assay: MI-219 apoptosis induction in AML cell lines; conditions: Kasumi-3 AML cell line, p53 (exon5-9) mut
Experimental: as §1

[11] = test system: MUTZ-2; assay: MI-219 apoptosis induction in AML cell lines; conditions: MUTZ-2 AML cell line, p53 wt
Experimental: as §1

[12] = test system: OCI-AML-3; assay: MI-219 apoptosis induction in AML cell lines; conditions: OCI-AML-3 AML cell line, p53 wt
Experimental: as §1

[13] = test system: MOLM-16; assay: MI-219 apoptosis induction in AML cell lines; conditions: MOLM-16 AML cell line, p53 (exon5-9) mut
Experimental: as §1

[14] = test system: AP-1060; assay: MI-219 apoptosis induction in AML cell lines; conditions: AP-1060 AML cell line, p53 wt
Experimental: as §1

[15] = test system: OCI-AML-5; assay: MI-219 apoptosis induction in AML cell lines; conditions: OCI-AML-5 AML cell line, p53 wt
Experimental: as §1

[16] = test system: OCI-AML-2; assay: MI-219 apoptosis induction in AML cell lines; conditions: OCI-AML-2 AML cell line, p53 wt
Experimental: as §1

[17] = test system: MONO-MAC-6; assay: MI-219 apoptosis induction in AML cell lines; conditions: MONO-MAC-6 AML cell line, p53 (exon5-9) mut
Experimental: as §1

[18] = test system: MOLM-13; assay: MI-219 apoptosis induction in AML cell lines; conditions: MOLM-13 AML cell line, p53 wt
Experimental: as §1

[19] = test system: ME-1; assay: MI-219 apoptosis induction in AML cell lines; conditions: ME-1 AML cell line, p53 (exon5-9) mut
Experimental: as §1

[20] = test system: AML-193; assay: MI-219 apoptosis induction in AML cell lines; conditions: AML-193 AML cell line, p53 (exon5-9) mut
Experimental: as §1

[21] = test system: AML blasts; assay: Ex vivo AML blasts MDM2 inhibitor apoptosis assay (annexin-V/PI FACS)
Experimental: Blasts enriched to >90% purity using methods detailed above were incubated in serum-supplemented RPMI medium at 2.5×10^5 cells in 100 μl final volume in the presence of various concentrations of the MDM2 inhibitors MI-219 and MI-63 (range 0.625-20 μM) for 40 hours. Apoptosis and necrosis was measured for each treated blast aliquot using annexin-V/PI FACS-based readouts and values subsequently normalized to spontaneous death rates in untreated parallel cultures according to the formula (% alive=% mean alive treated samples/% mean alive paired non-treated samples).
To evaluate the efficacy of MDM2 inhibitor-mediated apoptotic cell kill in AML blasts ex vivo, blasts from 109 AML specimens (97 with wild type p53 and 12 with mutant p53 by exon 5-9 exon sequence analysis) were purified to >90% purity and cell aliquots were incubated for 40 hours with escalating concentrations of the MDM2 inhibitors MI-219 (N=109) and MI-63 (N=60). The apoptotic cell fraction in treated samples was subsequently quantitated through annexin V-PI-based FACS analysis and normalized to measurements in paired untreated cells.

[22] = test system: p53; assay: p53 immunoblot of AML cell lines after MI-219 treatment
[23] = ex vivo, blasts from 109 patients

Nc1ncn([C@@H]2O[C@H](CO)[C@@H](O)[C@H]2O)c(=O)n1 [Azacytidine, 5-azacytidine]
p53 expression after treatment [1]: Does Not Induce p53 Expression

CC(C)(C)C[C@H]1N[C@@H](C(=O)NCCN2CCOCC2)[C@H](c2cccc(Cl)c2F)[C@@]12C(=O)Nc1cc(Cl)ccc12 [MI-63]
pIC50 [2]: < 5.00
pIC50 [3]: < 5.00
pIC50 [4]: < 5.00
pIC50 [5]: < 5.00
pIC50 [6]: < 5.00
pIC50 [7]: < 5.00
pIC50 [8]: 5.13
pIC50 [9]: 5.42
pIC50 [10]: < 5.00
pIC50 [11]: 5.93
pIC50 [12]: < 5.00
pIC50 [13]: < 5.00
pIC50 [14]: 5.39
pIC50 [15]: < 5.00
pIC50 [16]: 5.32
pIC50 [17]: < 5.00
pIC50 [18]: 5.54
pIC50 [19]: < 5.00
pIC50 [20]: < 5.00

CC(C)(C)C[C@H]1N[C@@H](C(=O)NCC[C@H](O)CO)[C@H](c2cccc(Cl)c2)[C@@]12C(=O)Nc1cc(Cl)c(F)cc12.Cl [MI-219]
fraction of AML cases with wild type p53 with IC50>10 μM ([21]; 21/97 cases): 22%
fraction of AML cases with wild type p53 exon 5-9 that were very sensitive (IC50<2 μM) ([21]; 32/97 cases): 33%
fraction of AML cases with wild type p53 with IC50>5 μM ([21]; 32/97 cases): 33%
fraction of AML cases with wild type p53 exon 5-9 that were sensitive (IC50>2 μM to <5 μM) ([21]; 33/97 cases): 34%
fraction of AML samples with FLT3-ITD with IC50 <2 μM ([21]; FLT3-ITD, N=19): 58%
fraction of AML samples with FLT3-ITD with IC50 <5 μM ([21]; FLT3-ITD, N=19): 84%
pIC50 ([21]; all AML with wild type p53 exon 5-9, read-out: threshold IC50 value at the 25th percentile): 5.75
pIC50 ([21]; all AML with wild type p53 exon 5-9, read-out: threshold IC50 value at the 50th percentile): 5.49
fraction of AML cases with unmutated p53 with primary resistance [21, 23]: ~30%
sensitivity of AML cases with mutated p53 [21, 23]: resistant
pIC50 ([21]; previously untreated AML cases, exclusive of p53 exon 5-9 mutations, read-out: mean IC50): 5.18
pIC50 ([21]; primary AML, exclusive of cases with p53 exon 5-9 mutations, 40 hours, read-out: mean IC50): 5.21
pIC50 ([21]; relapsed AML cases, exclusive of p53 exon 5-9 mutations, read-out: mean IC50): 5.36
pIC50 ([21]; secondary AML, exclusive of cases with p53 exon 5-9 mutations, 40 hours, read-out: mean IC50): 5.10
pIC50 ([21]; tAML, exclusive of cases with p53 exon 5-9 mutations, 40 hours, read-out: mean IC50): 5.32
pIC50 [2]: < 4.70
pIC50 [3]: < 4.70
pIC50 [4]: < 4.70
pIC50 [5]: < 4.70
pIC50 [6]: < 4.70
pIC50 [7]: < 4.70
pIC50 [8]: 5.15
pIC50 [9]: 5.46
pIC50 [10]: < 4.70
pIC50 [11]: 5.89
pIC50 [12]: 4.74
pIC50 [13]: < 4.70
pIC50 [14]: 5.37
pIC50 [15]: 4.86
pIC50 [16]: 5.28
pIC50 [17]: < 4.70
pIC50 [18]: 5.58
pIC50 [19]: < 4.70
pIC50 [20]: < 4.70
p53 immunoblot (MI-219 10 μM) ([22]; AP-1060): Inducible
p53 immunoblot (MI-219 10 μM) ([22]; GF-D8): non-inducible
p53 immunoblot (MI-219 10 μM) ([22]; Kasumi-1): non-inducible
p53 immunoblot (MI-219 10 μM) ([22]; Kasumi-3): non-inducible
p53 immunoblot (MI-219 10 μM) ([22]; ML-2): Inducible
p53 immunoblot (MI-219 10 μM) ([22]; MOLM-13): Inducible
p53 immunoblot (MI-219 10 μM) ([22]; MOLM-16): non-inducible
p53 immunoblot (MI-219 10 μM) ([22]; MONO-MAC-6): non-inducible
p53 immunoblot (MI-219 10 μM) ([22]; MUTZ-2): Inducible
p53 immunoblot (MI-219 10 μM) ([22]; OCI-AML-2): Inducible
p53 immunoblot (MI-219 10 μM) ([22]; OCI-AML-3): Inducible
p53 immunoblot (MI-219 10 μM) ([22]; OCI-AML-5): Inducible
p53 immunoblot (MI-219 10 μM) ([22]; OCI-M2): non-inducible
p53 immunoblot (MI-219 10 μM) ([22]; SIG-M5): Inducible
p53 immunoblot (MI-219 10 μM) ([22]; SKM-1): non-inducible

COc1ccc(C2=N[C@@H](c3ccc(Cl)cc3)[C@@H](c3ccc(Cl)cc3)N2C(=O)N2CCNC(=O)C2)c(OC(C)C)c1 [Nutlin, reference compound]
pIC50 [2]: < 5.00
pIC50 [3]: < 5.00
pIC50 [4]: < 5.00
pIC50 [5]: < 5.00
pIC50 [6]: < 5.00
pIC50 [7]: < 5.00
pIC50 [8]: 4.98
pIC50 [9]: 5.33
pIC50 [10]: < 5.00
pIC50 [11]: 6.02
pIC50 [12]: < 5.00
pIC50 [13]: < 5.00
pIC50 [14]: 5.17
pIC50 [15]: < 5.00
pIC50 [16]: 5.14
pIC50 [17]: < 5.00
pIC50 [18]: 5.39
pIC50 [19]: < 5.00
pIC50 [20]: < 5.00

CC(/C=C/C(=O)NO)=C\[C@@H](C)C(=O)c1ccc(N(C)C)cc1 [Trichostatin A]
p53 expression after treatment [1]: Does Not Induce p53 Expression
